Test results reported in patent US10973832B2, “Muscarinic M1 receptor agonists” (Heptares Therapeutics Limited, priority 2011, dated 2021).
pEC50: −log10 of the molar value.

Columns and labels:
[1] = target: T1, human muscarinic M1 receptor (Homo sapiens, UniProt P11229); assay: Phospho-ERK1/2 assay, muscarinic M1; format: cell-based; details: for Emax: CHO, read-out: % Emax cf. ACh (M1)
T1 sequence (P11229 1-460): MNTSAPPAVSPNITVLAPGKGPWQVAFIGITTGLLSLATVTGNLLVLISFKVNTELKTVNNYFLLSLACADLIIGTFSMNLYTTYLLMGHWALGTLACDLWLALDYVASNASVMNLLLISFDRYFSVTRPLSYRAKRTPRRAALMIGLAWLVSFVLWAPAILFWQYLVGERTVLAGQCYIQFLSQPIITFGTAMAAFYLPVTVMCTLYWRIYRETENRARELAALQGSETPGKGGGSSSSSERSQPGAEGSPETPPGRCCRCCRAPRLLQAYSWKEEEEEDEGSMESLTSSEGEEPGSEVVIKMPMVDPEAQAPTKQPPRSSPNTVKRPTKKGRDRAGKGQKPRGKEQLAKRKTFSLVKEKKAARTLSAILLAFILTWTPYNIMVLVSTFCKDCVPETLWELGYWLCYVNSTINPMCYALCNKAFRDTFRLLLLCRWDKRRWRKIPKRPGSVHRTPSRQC
Procedure, shortened: (§1)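 Agonist-induced phospho-ERK1/2 is measured in serum-starved CHO cells carrying the human receptor, with a 5 min stimulation at 37 °C. AlphaScreen SureFire quantifies the signal, from which pEC50 and Emax are obtained.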

[2] = target: T2, human muscarinic M3 receptor (Homo sapiens, UniProt P20309); assay: Phospho-ERK1/2 assay, muscarinic M3; format: cell-based; details: for Emax: CHO, read-out: % Emax cf. ACh (M3)
T2 construct: expressed in transfected cells
Procedure, shortened: as §1

[3] = test system: scopolamine-induced amnesia; assay: Passive avoidance; format: in vivo; details: for reversal of scopolamine-induced amnesia: dose range 3, 10, 30 mg/kg po, scopolamine 1 mg/kg i.p.; for significance of reversal of scopolamine-induced amnesia: p<0.05 Bonferroni post hoc test
Method: (§2) FIGS. 1-4 show the efficacy of the compounds of the invention. FIGS. 1-3 relate to the passive avoidance assay described in part B. Studies were carried out as described previously by Foley et al., (2004) Neuropsychopharmacology. In the passive avoidance task scopolamine administration (1 mg/kg, i.p.) at 6 hours following training rendered animals amnesic of the paradigm. A dose range of 3, 10, and 30 mg/kg (po) free base, administered 90 minutes prior to the training period via oral gavage, was examined.
as §2, with “Studies” for “FIGS. 1-4 show the efficacy of the compounds of the invention. FIGS. 1-3 relate to the passive avoidance assay described in part B. Studies”

Rats = assay: Irwin profile; format: in vivo
Method: The method, which detects the principal effects of a test substance on behaviour and physiological function, follows that described by Irwin (1968) Psychopharmacologia. Cholinergic side effects are potentially visible in the behavioural readout of the Irwin assay, and an absence of these side effects can be taken as an indication that agonism of the M2 and M3 receptors is not significant in vivo.
Rats are administered the test substance or its vehicle, and are observed in simultaneous comparison with a control group. Behavioural modifications, physiological and neurotoxicity symptoms, rectal temperature and pupil diameter are recorded according to a standardized observation grid derived from that of Irwin. The grid contains the following items: death, convulsions, tremor, Straub tail, altered activity, jumping, abnormal gait (rolling, tiptoe), motor incoordination, altered abdominal muscle tone, loss of grasping, akinesia, catalepsy, loss of traction, loss of balance, fore-paw treading, writhing, piloerection, stereotypies (sniffing, chewing, head movements), head-twitches, scratching, altered respiration, aggression, altered fear/startle, altered reactivity to touch, ptosis, exophthalmia, loss of righting reflex, loss of corneal reflex, analgesia, defecation/diarrhea, salivation, lacrimation, rectal temperature (hypothermia/hyperthermia) and pupil diameter (myosis/mydriasis). […]

[4] = test system: CA1 region of rat hippocampal slices; assay: CA1 cell firing (fEPSP amplitude); format: cell-based; details: five point cumulative concentration-response, 6 slices averaged
Method: Rat hippocampal slices of […] thickness were cut in chilled (<4° C.) artificial cerebrospinal fluid (aCSF, composition in mM: NaCl 127, KCl 1.6, KH2PO4 1.24, MgSO4 1.3, CaCl2 2.4, NaHCO3 26 and D-glucose 10) using vibratome. Slices were maintained in oxygenated (95% O2/5% CO2) aCSF at room temperature for at least 1 hr prior to electrophysiological recording, after which they were transferred to an interface chamber and constantly perfused with warmed (30° C.) oxygenated aCSF at a flow rate of 1.5-3 ml·min−1. Schaffer collaterals were then stimulated (1-20 V, 0.1 ms pulse width, 0.033 Hz) with a concentric bipolar electrode to evoke field excitatory post synaptic potentials (fEPSPs) recorded from the stratum radiatum of the CA1 region.
Experiments were performed to examine the effect of compound compared to […] carbachol (CCh), on the amplitude of fEPSPs in the CA1 region of rat hippocampal slices. 1 μM CCh was initially applied until steady-state, followed by wash, before performing a five point cumulative concentration-response to compound. Each compound was tested on 6 slices and results averaged. Drug preparation; compound was dissolved in 100% DMSO at a stock concentration of 30 mM, and diluted according to requirements, carbamoylcholine chloride (CCh) was purchased from Sigma (Cat #C4382) and dissolved at a stock concentration of 1 mM in ddH2O.

T2 sequence (P20309 whole entry): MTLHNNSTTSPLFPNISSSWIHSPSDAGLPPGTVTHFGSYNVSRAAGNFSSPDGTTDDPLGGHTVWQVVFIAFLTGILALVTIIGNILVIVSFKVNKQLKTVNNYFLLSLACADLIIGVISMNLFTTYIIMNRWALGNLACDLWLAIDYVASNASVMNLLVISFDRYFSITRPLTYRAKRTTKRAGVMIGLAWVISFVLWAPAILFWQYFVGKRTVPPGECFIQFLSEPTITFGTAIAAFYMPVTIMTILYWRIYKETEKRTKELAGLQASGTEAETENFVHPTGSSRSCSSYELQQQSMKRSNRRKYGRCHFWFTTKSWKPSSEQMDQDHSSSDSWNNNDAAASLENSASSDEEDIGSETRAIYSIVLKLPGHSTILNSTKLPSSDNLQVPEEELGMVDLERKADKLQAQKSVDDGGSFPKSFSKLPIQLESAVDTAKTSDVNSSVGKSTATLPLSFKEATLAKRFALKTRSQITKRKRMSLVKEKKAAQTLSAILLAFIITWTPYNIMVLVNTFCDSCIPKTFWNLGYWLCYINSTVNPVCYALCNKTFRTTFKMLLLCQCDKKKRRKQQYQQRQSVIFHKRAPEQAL

Structure (SMILES)	pEC50 [1]	Emax [1] [%]	pEC50 [2]	Emax [2] [%]	reversal of scopolamine-induced amnesia ([3]; 90 minutes prior to training)	ED50 ([3]; po, free base, 90 minutes prior to training, scopolamine 1 mg/kg i.p. 6 hours after training, read-out: approximate ED50, reversal of scopolamine-induced amnesia) [mg/kg]	Irwin observation grid, effects on any parameter vs vehicle (Rats; 3, 10, 30 and 75 mg/kg po, 15, 30, 60, 120, 180 minutes and 24 hours)	pEC50 [4]	effect compared with donepezil (0.1 mg/kg, i.p.) positive control ([3]; 10 mg/kg, FIG. 3)	effect compared with donepezil (0.1 mg/kg, i.p.) positive control ([3]; 10 and 30 mg/kg, FIG. 2)	significance of reversal of scopolamine-induced amnesia ([3]; acute 10 mg/kg po, FIG. 3)	significance of reversal of scopolamine-induced amnesia ([3]; acute 10 and 30 mg/kg, FIG. 2)	Irwin observation grid, effects on any parameter vs vehicle (Rats; 5, 10, 20 and 40 mg/kg, 15, 30, 60, 120 and 180 minutes)
CCOC(=O)N1CCCC(N2CCC(C(=O)NC3(C)CCC3)CC2)CC1 (stereo not shown) [Example 27, ethyl 4-(4-((1-methylcyclobutyl)carbamoyl)piperidin-1-yl)azepane-1-carboxylate]	7.34	117	< 4.70	5	reverse scopolamine-induced amnesia of the paradigm in a dose-dependent manner	~10	No effects on any parameter were observed at any time point	5.92					
CCOC(=O)N1CCC[C@H](N2CCC(C(=O)NC3(C)CCC3)CC2)CC1 [Example 65, ethyl (4S)-4-{4-[(1-methylcyclobutyl)carbamoyl]piperidin-1-yl)azepane-1-carbondate]	7.50	104	< 4.70	11	reverse scopolamine-induced amnesia of the paradigm in a dose-dependent manner			5.69	not significantly different to that produced by the cholinesterase inhibitor donepezil	not significantly different to that produced by the cholinesterase inhibitor donepezil	significant effects	significant effects	No significant effects on any parameter were observed
